Data taken from patent publication US7141603B2, “Antitumor agents” (The Regents of The University California, priority 1999, dated 2006).

system: 8392 (B-cell leukemia/lymphoma) cells; assay: Test A in vitro cytotoxicity, 2 hour exposure, [3H]-thymidine incorporation; assay type: cell-based; settings: read-out: 2 hour IC50 8392, mean ± 1 standard deviation
Procedure: (§1) To assess cytotoxic effects, various concentrations of compounds of the invention were added to cultures of MV522 (human lung carcinoma cell line), HL60 (myeloid leukemia cells), and 8392 (B-cell leukemia/lymphoma) cells for 48 hours, then cell growth/viability was determined by trypan blue exclusion. As an alternative to 48 hour continuous exposure studies, cells were plated in liquid culture in 96 well plates, exposed to various concentrations of compounds of the invention for 2 hours, pulsed with [^3H]-thymidine for one to two hours and harvested onto filter papers. The filter papers were added to vials containing scintillation fluid and residual radioactivity determined in a beta (scintillation) counter.
(§2) Values are reported as mean±1 standard deviation; units are nanomoles per liter; and NT signifies not tested.

| Structure (SMILES) | IC50 |
| --- | --- |
| CC1=C2C=C(CO)C=C2C(=O)C(C)(O)C12CC2 (centres unmarked) [Compound 1] | 37 µM |
| CC(=O)OCC1=CC2=C(C)C3(CC3)C(C)(O)C(=O)C2=C1 (centres unmarked) [Compound 3] | 62 µM |

system: HL60 (myeloid leukemia cells); assay: as above; assay type: cell-based; settings: read-out: 2 hour IC50 HL60, mean ± 1 standard deviation
Procedure: as §1, §2

| Structure (SMILES) | IC50 |
| --- | --- |
| CC(=O)OCC1=C(CO)C=C2C(=O)C(C)(O)C3(CC3)C(C)=C21 (centres unmarked) [Compound 4] | > 40 µM |
| CC(=O)OCC1=CC2=C(C)C3(CC3)C(C)(O)C(=O)C2=C1 (centres unmarked) [Compound 3] | 15.6 µM |
| COCC1=C(CO)C=C2C(=O)C(C)(O)C3(CC3)C(C)=C21 (centres unmarked) [Compound 8] | > 80 µM |
| CC(=O)OCC1=C(COC(C)=O)C2=C(C)C3(CC3)C(C)(O)C(=O)C2=C1 (centres unmarked) [Compound 5] | 38.4 µM |
| COCC1=CC2=C(C)C3(CC3)C(C)(O)C(=O)C2=C1 (centres unmarked) [Compound 7] | 6 µM |
| COCC1=C(COC)C2=C(C)C3(CC3)C(C)(O)C(=O)C2=C1 (centres unmarked) [Compound 9] | 49.8 µM |

system: MV522 (human lung carcinoma cell line); assay: as above; assay type: cell-based; settings: read-out: 2 hour IC50 MV522, mean ± 1 standard deviation
Procedure: as §1, §2

| Structure (SMILES) | IC50 |
| --- | --- |
| CC(=O)OCC1=C(CO)C=C2C(=O)C(C)(O)C3(CC3)C(C)=C21 (centres unmarked) [Compound 4] | 20.4 µM |
| CC(=O)OCC1=CC2=C(C)C3(CC3)C(C)(O)C(=O)C2=C1 (centres unmarked) [Compound 3] | 19.6 µM |
| COCC1=C(CO)C=C2C(=O)C(C)(O)C3(CC3)C(C)=C21 (centres unmarked) [Compound 8] | > 80 µM |
| CC1=C2C(=CC(CO)=C2CO)C(=O)C(C)(O)C12CC2 (centres unmarked) [Compound 2] | 11.3 µM |
| CC(=O)N[C@@H](CSCC1=C(C)C=C2C(=O)C(C)(O)C3(CC3)C(C)=C21)C(=O)N[C@H](C)c1ccccc1 (some centres unmarked) [Compound 14] | 3.05 µM |
| COCC1=C(COC)C2=C(C)C3(CC3)C(C)(O)C(=O)C2=C1 (centres unmarked) [Compound 9] | > 50 µM |
| CC(=O)N[C@@H](CSCC1=C(C)C=C2C(=O)C(C)(O)C3(CC3)C(C)=C21)C(=O)O (some centres unmarked) [Compound 13] | 10 µM |

system: MV522 lung carcinoma xenograft; assay: Test B in vivo MV522 lung carcinoma xenograft; settings: daily IP for 5 consecutive days, MV522 xenograft mice
From the text: Several representative compounds of the invention were chosen for in vivo studies. […] Drug therapy was started 10 days after inoculation on a daily basis via IP route for 5 consecutive days. The animals were monitored for 3 weeks after start of therapy.
BALB/c nu/nu 4-week old female mice weighing 18–22 g were obtained from Simonsen, Inc. (Gilroy, Calif.) and maintained in the athymic mouse colony of the University of California (San Diego, Calif.) under pathogen free conditions using HEPA filter hoods. Animals were provided with sterilized food and water ad libitum in groups of 5 in plastic cages vented with polyester fiber filter covers. Clean, sterilized gowns, glove, face masks, and shoe and hood covers were worn by all personnel handling the animals. All studies were conducted in accordance with guidelines of the NIH “Guide for Care and Use of Animals” and approved by the University Institutional Animal Care and Use Committee (Protocol 3-006-2)
The MV522 lung carcinoma line used for xenograft studies was derived as described by Kelner et al. (Anticancer Res., 15: 867–872; 873–878 (1995)) and maintained in antibiotic-free RPMI 1640 (Mediatech, Herndon, Va.) supplemented with 10% fetal bovine serum and 2 mM glutamine in 37° C. humidified carbon dioxide incubator.
Each animal was earmarked and followed individually throughout the experiments. Mice received s.c. injections of the parental cell line MV522 using 10 million cells/inoculation over the shoulder. Ten days after s.c. implantation of the MV522 cells, when s.c. tumors were approximately 3×3 mm in size, animals received the desired drug and dosage. The effect of the compound on life span was calculated from median survival.
Although MV522 cells kill mice by metastases, primary s.c. tumor growth over the shoulder was monitored starting on the first day of treatment and at weekly intervals thereafter. Tumor size was measured in two perpendicular diameters. Tumor weights were estimated according to the formula w=(width)^2×length/2). Relative weights (RW) were calculated to standardized variability in tumor size among test groups at initiation of treatment using the formula RW=Wt/wi, where Wi is the tumor weight for a given animal at beginning of drug treatment and Wt is tumor weight at a subsequent time. Animals were necropsied, and organs were examined for evidence of metastases.
Comparison of survival curves between groups of animals was by the method of Kaplan and Meier. For comparison of relative tumor weights between multiple groups of animals, ordinary ANOVA followed by Tukey-Kramer multiple Comparison post ANOVA analysis was performed (Kelner et al. (Anticancer Res., 15: 867–872; 873–878 (1995)). Probability values (p) less than 0.05 were considered statistically significant.
Data was collected using eight animals in the control studies and four animals in each compound study. Values represent relative tumor weight or Wt/Wi (day ten by definition is 1.0). Drug was administered i.p. on days 10, 11, 12, 13, and 14 (QD×5 days).

| Structure (SMILES) | MTD reached in Test B |
| --- | --- |
| CC1=C2C=C(CO)C=C2C(=O)C(C)(O)C12CC2 (centres unmarked) [Compound 1] | not |
| CC1=C2C(=CC(CO)=C2CO)C(=O)C(C)(O)C12CC2 (centres unmarked) [Compound 2] | not |

same assay, conditions: i.p. QD×5 on days 10-14; day ten = 1.0; dose: 1 14 mg/kg, 2 35 mg/kg, 13 32 mg/kg, 14 28 mg/kg

| Structure (SMILES) | relative tumor weight Wt/Wi Day 17 | relative tumor weight Wt/Wi Day 24 | relative tumor weight Wt/Wi Day 31 |
| --- | --- | --- | --- |
| CC1=C2C=C(CO)C=C2C(=O)C(C)(O)C12CC2 (centres unmarked) [Compound 1] | 1.4 ± 0.7 | 7.0 ± 1.3 | 11.8 ± 3.0 |
| CC1=C2C(=CC(CO)=C2CO)C(=O)C(C)(O)C12CC2 (centres unmarked) [Compound 2] | 2.1 ± 0.2 | 3.3 ± 0.3 | 4.0 ± 0.9 |
| CC(=O)N[C@@H](CSCC1=C(C)C=C2C(=O)C(C)(O)C3(CC3)C(C)=C21)C(=O)N[C@H](C)c1ccccc1 (some centres unmarked) [Compound 14] | 3.2 ± 0.6 | 4.1 ± 0.8 | 6.0 ± 1.8 |
| CC(=O)N[C@@H](CSCC1=C(C)C=C2C(=O)C(C)(O)C3(CC3)C(C)=C21)C(=O)O (some centres unmarked) [Compound 13] | 2.3 ± 0.5 | 4.1 ± 0.8 | 4.7 ± 1.5 |

system: not listed separately; assay: Tolerated dose / toxicity on administration; settings: chronically administered at 35 mg/kg
From the text: As one skilled in the art would recognize, the amount can be varied depending on the method of administration.

| Structure (SMILES) | toxicity on chronic administration |
| --- | --- |
| CC1=C2C(=CC(CO)=C2CO)C(=O)C(C)(O)C12CC2 (centres unmarked) [Compound 2] | without toxicity |

system: Dunning leukemia; assay: not given; settings: rats with Dunning leukemia; cited from earlier work

| Structure (SMILES) | life span |
| --- | --- |
| CC1=C2C(=CC(C)(C)[C@@H]2O)C(=O)[C@](C)(O)C12CC2 [Illudin M] | significantly increased |

system: solid tumor systems; assay: not given; settings: cited from earlier work

| Structure (SMILES) | therapeutic index |
| --- | --- |
| CC1=C2C(=CC(C)(C)[C@@H]2O)C(=O)[C@](C)(O)C12CC2 [Illudin M] | low |
